Key:
Assay in all cases: cells
CaR-1 = type: functional, cell-based, Homo sapiens; conditions: Homo sapiens, CaR-1;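 further: growth inhibition of human CaR-1 cancer cells, read out with a cell viability assay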
Description: SANGER: Inhibition of human CaR-1 cell growth in a cell viability assay.

DB = type: functional, cell-based; conditions: Homo sapiens
Description: SANGER: Inhibition of human DB cell growth in a cell viability assay.

GCIY = type: functional, cell-based, Homo sapiens; conditions: Homo sapiens, GCIY;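 further: growth inhibition of the human GCIY cell line, read out by a cell viability assay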
Description: SANGER: Inhibition of human GCIY cell growth in a cell viability assay.

IST-MEL1 = type: functional, cell-based, Homo sapiens; conditions: Homo sapiens, IST-MEL1;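 further: growth inhibition of the cell line, read out with a cell viability assay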
Description: SANGER: Inhibition of human IST-MEL1 cell growth in a cell viability assay.

J82 = type: functional, cell-based; conditions: Homo sapiens;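 further: growth inhibition of J82 cells, read out with a cell viability assay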
Description: SANGER: Inhibition of human J82 cell growth in a cell viability assay.

KINGS-1 = type: functional, cell-based, Homo sapiens; conditions: Homo sapiens, KINGS-1;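 further: cell viability assay measuring suppression of KINGS-1 cell growth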
Description: SANGER: Inhibition of human KINGS-1 cell growth in a cell viability assay.

KYSE-410 = type: functional, cell-based, Homo sapiens; conditions: Homo sapiens, KYSE-410;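 further: growth inhibition of KYSE-410 cells, measured through a cell viability readout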
Description: SANGER: Inhibition of human KYSE-410 cell growth in a cell viability assay.

KYSE-70 cell line = type: functional, cell-based, Homo sapiens; conditions: Homo sapiens, KYSE-70;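 further: cell viability assay read-out, with IC50 expressing suppression of KYSE-70 cell growth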
Description: SANGER: Inhibition of human KYSE-70 cell growth in a cell viability assay.

L-428 = type: functional, cell-based; conditions: Homo sapiens
Description: SANGER: Inhibition of human L-428 cell growth in a cell viability assay.

LB2518-MEL = type: functional, cell-based, Homo sapiens; conditions: Homo sapiens, LB2518-MEL;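 further: growth inhibition of human LB2518-MEL cells, measured with a cell viability assay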
Description: SANGER: Inhibition of human LB2518-MEL cell growth in a cell viability assay.

LCLC-97TM1 = type: functional, cell-based, Homo sapiens; conditions: Homo sapiens, LCLC-97TM1;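 further: cell viability assay measuring growth inhibition of human LCLC-97TM1 cells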
Description: SANGER: Inhibition of human LCLC-97TM1 cell growth in a cell viability assay.

LS-1034 = type: functional, cell-based, Homo sapiens; conditions: Homo sapiens, LS-1034
Description: SANGER: Inhibition of human LS-1034 cell growth in a cell viability assay.

LU-134-A = type: functional, cell-based; conditions: Homo sapiens
Description: SANGER: Inhibition of human LU-134-A cell growth in a cell viability assay.

Lu-65 = type: functional, cell-based; conditions: Homo sapiens;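 further: growth inhibition of Lu-65 cancer cells, read out by a cell viability assay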
Description: SANGER: Inhibition of human LU-65 cell growth in a cell viability assay.

LoVo = type: functional, cell-based; conditions: Homo sapiens;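 further: growth inhibition of human LoVo cells, read out with a cell viability assay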
Description: SANGER: Inhibition of human LoVo cell growth in a cell viability assay.

M14 = type: functional, cell-based, Homo sapiens; conditions: Homo sapiens, M14;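 further: growth inhibition of M14 cells, read out with a cell viability assay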
Description: SANGER: Inhibition of human M14 cell growth in a cell viability assay.

MDA-MB-175-VII = type: functional, cell-based, Homo sapiens; conditions: Homo sapiens, MDA-MB-175-VII
MDA-MB-415 = type: functional, cell-based; conditions: Homo sapiens
MFH-ino = type: functional, cell-based; conditions: Homo sapiens;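 further: growth inhibition of human MFH-ino cells, read out by a cell viability assay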
Description: SANGER: Inhibition of human MFH-ino cell growth in a cell viability assay.

MKN-1 = type: functional, cell-based, Homo sapiens; conditions: Homo sapiens, MKN-1;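 further: growth inhibition of human MKN1 cells, read out by a cell viability measurement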
Description: SANGER: Inhibition of human MKN1 cell growth in a cell viability assay.

MKN-7 = type: functional, cell-based, Homo sapiens; conditions: Homo sapiens, MKN-7;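 further: growth inhibition of MKN-7 cells, read out with a cell viability assay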
Description: SANGER: Inhibition of human MKN7 cell growth in a cell viability assay.

MN-60 = type: functional, cell-based; conditions: Homo sapiens;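 further: growth inhibition of the MN-60 cell line, determined with a cell viability assay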
Description: SANGER: Inhibition of human MN-60 cell growth in a cell viability assay.

NB10 = type: functional, cell-based, Homo sapiens; conditions: Homo sapiens, NB10;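 further: growth inhibition of NB10 cells, read out by a cell viability assay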
Description: SANGER: Inhibition of human NB10 cell growth in a cell viability assay.

NCI-H1838 = type: functional, cell-based, Homo sapiens; conditions: Homo sapiens, NCI-H1838;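 further: growth inhibition of NCI-H1838 cells, determined with a cell viability readout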
Description: SANGER: Inhibition of human NCI-H1838 cell growth in a cell viability assay.

NCI-H446 = type: functional, cell-based; conditions: Homo sapiens;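 further: growth inhibition of NCI-H446 cells determined by a cell viability assay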
Description: SANGER: Inhibition of human NCI-H446 cell growth in a cell viability assay.

NCI-H526 = type: functional, cell-based; conditions: Homo sapiens;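 further: growth inhibition of the human NCI-H526 cell line, measured by a cell viability assay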
Description: SANGER: Inhibition of human NCI-H526 cell growth in a cell viability assay.

PA-1 = type: functional, cell-based, Homo sapiens; conditions: Homo sapiens, PA-1;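 further: IC50 for suppression of PA-1 cell proliferation, determined with a cell viability read-out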
Description: SANGER: Inhibition of human PA-1 cell growth in a cell viability assay.

PFSK-1 = type: functional, cell-based, Homo sapiens; conditions: Homo sapiens, PFSK-1;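 further: cell viability assay measuring how strongly compounds suppress growth of human PFSK-1 cells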
Description: SANGER: Inhibition of human PFSK-1 cell growth in a cell viability assay.

RERF-LC-MS = type: functional, cell-based, Homo sapiens; conditions: Homo sapiens, RERF-LC-MS;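 further: growth inhibition of human RERF-LC-MS cells, read out by a cell viability assay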
Description: SANGER: Inhibition of human RERF-LC-MS cell growth in a cell viability assay.

RT-112 = type: functional, cell-based, Homo sapiens; conditions: Homo sapiens, RT-112
Description: SANGER: Inhibition of human RT-112 cell growth in a cell viability assay.

SCC-15 = type: functional, cell-based, Homo sapiens; conditions: Homo sapiens, SCC-15;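 further: growth inhibition of SCC-15 cells, read out with a cell viability assay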
Description: SANGER: Inhibition of human SCC-15 cell growth in a cell viability assay.

SK-N-DZ = type: functional, cell-based, Homo sapiens; conditions: Homo sapiens, SK-N-DZ;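 further: growth inhibition of the cancer cell line, read out through a viability assay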
Description: SANGER: Inhibition of human SK-N-DZ cell growth in a cell viability assay.

SW1088 = type: functional, cell-based, Homo sapiens; conditions: Homo sapiens, SW1088;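 further: growth inhibition of human SW1088 cells, read out by a cell viability assay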
Description: SANGER: Inhibition of human SW1088 cell growth in a cell viability assay.

SW948 = type: functional, cell-based, Homo sapiens; conditions: Homo sapiens, SW948;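 further: growth inhibition of SW948 cells, read out with a cell viability assay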
Description: SANGER: Inhibition of human SW948 cell growth in a cell viability assay.

SiHa = type: functional, cell-based, Homo sapiens; conditions: Homo sapiens, SiHa;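 further: Viability-based readout of growth inhibition in SiHa cells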
Description: SANGER: Inhibition of human SiHa cell growth in a cell viability assay.

TCC-SUP = type: functional, cell-based, Homo sapiens; conditions: Homo sapiens, TCC-SUP;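 further: growth inhibition of TCC-SUP cells, read out with a cell viability assay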
Description: SANGER: Inhibition of human TCCSUP cell growth in a cell viability assay.

786-0 = type: functional, cell-based, Homo sapiens; conditions: Homo sapiens
Description: SANGER: Inhibition of human 786-0 cell growth in a cell viability assay.

A-427 = type: functional, cell-based, Homo sapiens; conditions: Homo sapiens, A-427;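 further: growth inhibition of human A-427 cells, read out by a cell viability assay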
Description: SANGER: Inhibition of human A427 cell growth in a cell viability assay.

A498 = type: functional, cell-based, Homo sapiens; conditions: Homo sapiens, A498;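 further: growth inhibition of human A498 cells, read out with a cell viability assay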
Description: SANGER: Inhibition of human A498 cell growth in a cell viability assay.

AN3-CA = type: functional, cell-based; conditions: Homo sapiens;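 further: growth inhibition of human AN3-CA cells measured by a cell viability assay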
Description: SANGER: Inhibition of human AN3-CA cell growth in a cell viability assay.

BB49-HNC = type: functional, cell-based, Homo sapiens; conditions: Homo sapiens, BB49-HNC;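 further: cell viability assay read-out, reported as inhibition of BB49-HNC cell growth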
Description: SANGER: Inhibition of human BB49-HNC cell growth in a cell viability assay.

BB65-RCC = type: functional, cell-based, Homo sapiens; conditions: Homo sapiens, BB65-RCC;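 further: growth inhibition of the cell line, measured with a cell viability assay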
Description: SANGER: Inhibition of human BB65-RCC cell growth in a cell viability assay.

BCPAP = type: functional, cell-based, Homo sapiens; conditions: Homo sapiens, BCPAP;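 further: growth inhibition of BCPAP cells, read out in a cell viability assay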
Description: SANGER: Inhibition of human BCPAP cell growth in a cell viability assay.

BPH-1 = type: functional, cell-based, Homo sapiens; conditions: Homo sapiens, BPH-1;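 further: cell viability assay measuring growth inhibition of human BPH-1 cells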
Description: SANGER: Inhibition of human BPH-1 cell growth in a cell viability assay.

BT-474 = type: functional, cell-based, Homo sapiens; conditions: Homo sapiens, BT-474
Description: SANGER: Inhibition of human BT-474 cell growth in a cell viability assay.

C32 = type: functional, cell-based, Homo sapiens; conditions: Homo sapiens, C32;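 further: cell viability assay, with IC50 reflecting inhibition of C32 cell growth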
Description: SANGER: Inhibition of human C32 cell growth in a cell viability assay.

C3A = type: functional, cell-based, Homo sapiens; conditions: Homo sapiens, C3A;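 further: growth inhibition of C3A human cells, quantified with a cell viability readout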
Description: SANGER: Inhibition of human C3A cell growth in a cell viability assay.

CAL-120 = type: functional, cell-based, Homo sapiens; conditions: Homo sapiens, CAL-120;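 further: cell growth inhibition, read out as cell viability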
Description: SANGER: Inhibition of human CAL-120 cell growth in a cell viability assay.

U-118-MG = type: functional, cell-based, Homo sapiens; conditions: Homo sapiens, U-118-MG
Description: SANGER: Inhibition of human U-118-MG cell growth in a cell viability assay.

U-266 = type: functional, cell-based; conditions: Homo sapiens
Description: SANGER: Inhibition of human U-266 cell growth in a cell viability assay.

UO-31 = type: functional, cell-based; conditions: Homo sapiens;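 further: cell viability assay measuring inhibition of cell growth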
Description: SANGER: Inhibition of human U031 cell growth in a cell viability assay.

CHP-212 = type: functional, cell-based, Homo sapiens; conditions: Homo sapiens, CHP-212
Description: SANGER: Inhibition of human CHP-212 cell growth in a cell viability assay.

Structure (SMILES): Cc1cnc(-c2cnc(NCCNc3ccc(C#N)cn3)nc2-c2ccc(Cl)cc2Cl)[nH]1 [LADUVIGLUSIB]
- IC50 (CaR-1): > 2.56 µM
- IC50 (DB): > 2.56 µM
- IC50 (GCIY): > 2.56 µM
- IC50 (IST-MEL1): > 2.56 µM
- IC50 (J82): > 2.56 µM
- IC50 (KINGS-1): > 2.56 µM
- IC50 (KYSE-410): > 2.56 µM
- IC50 (KYSE-70 cell line): > 2.56 µM
- IC50 (L-428): > 2.56 µM
- IC50 (LB2518-MEL): > 2.56 µM
- IC50 (LCLC-97TM1): > 2.56 µM
- IC50 (LS-1034): > 2.56 µM
- IC50 (LU-134-A): > 2.56 µM
- IC50 (Lu-65): > 2.56 µM
- IC50 (LoVo): > 2.56 µM
- IC50 (M14): > 2.56 µM
- IC50 (MDA-MB-175-VII): > 2.56 µM
- IC50 (MDA-MB-415): > 2.56 µM
- IC50 (MFH-ino): > 2.56 µM
- IC50 (MKN-1): > 2.56 µM
- IC50 (MKN-7): > 2.56 µM
- IC50 (MN-60): > 2.56 µM
- IC50 (NB10): > 2.56 µM
- IC50 (NCI-H1838): > 2.56 µM
- IC50 (NCI-H446): > 2.56 µM
- IC50 (NCI-H526): > 2.56 µM
- IC50 (PA-1): > 2.56 µM
- IC50 (PFSK-1): > 2.56 µM
- IC50 (RERF-LC-MS): > 2.56 µM
- IC50 (RT-112): > 2.56 µM
- IC50 (SCC-15): > 2.56 µM
- IC50 (SK-N-DZ): > 2.56 µM
- IC50 (SW1088): > 2.56 µM
- IC50 (SW948): > 2.56 µM
- IC50 (SiHa): > 2.56 µM
- IC50 (TCC-SUP): > 2.56 µM
- IC50 (786-0): > 2.56 µM
- IC50 (A-427): > 2.56 µM
- IC50 (A498): 1.3 µM
- IC50 (AN3-CA): > 2.56 µM
- IC50 (BB49-HNC): > 2.56 µM
- IC50 (BB65-RCC): > 2.56 µM
- IC50 (BCPAP): 1.67 µM
- IC50 (BPH-1): > 2.56 µM
- IC50 (BT-474): > 2.56 µM
- IC50 (C32): > 2.56 µM
- IC50 (C3A): > 2.56 µM
- IC50 (CAL-120): > 2.56 µM
- IC50 (U-118-MG): > 2.56 µM
- IC50 (U-266): > 2.56 µM
- IC50 (UO-31): > 2.56 µM
- IC50 (CHP-212): > 2.56 µM

Structure (SMILES): O=C(NOCC1CC1)c1ccc(F)c(F)c1Nc1ccc(I)cc1Cl [CI-1040]
- IC50 (CaR-1): > 10 µM
- IC50 (DB): 2.59 µM
- IC50 (GCIY): > 10 µM
- IC50 (IST-MEL1): 8 µM
- IC50 (J82): > 10 µM
- IC50 (KINGS-1): > 10 µM
- IC50 (KYSE-410): > 10 µM
- IC50 (KYSE-70 cell line): > 10 µM
- IC50 (L-428): > 10 µM
- IC50 (LB2518-MEL): 0.716 µM
- IC50 (LCLC-97TM1): 1.92 µM
- IC50 (LS-1034): > 10 µM
- IC50 (LU-134-A): > 10 µM
- IC50 (Lu-65): > 10 µM
- IC50 (LoVo): 1.46 µM
- IC50 (M14): 0.155 µM
- IC50 (MDA-MB-175-VII): > 10 µM
- IC50 (MDA-MB-415): > 10 µM
- IC50 (MFH-ino): > 10 µM
- IC50 (MKN-1): > 10 µM
- IC50 (MKN-7): > 10 µM
- IC50 (MN-60): > 10 µM
- IC50 (NB10): 5.89 µM
- IC50 (NCI-H1838): > 10 µM
- IC50 (NCI-H446): > 10 µM
- IC50 (NCI-H526): > 10 µM
- IC50 (PA-1): 5.64 µM
- IC50 (PFSK-1): > 10 µM
- IC50 (RERF-LC-MS): 5.69 µM
- IC50 (RT-112): 1.59 µM
- IC50 (SCC-15): > 10 µM
- IC50 (SK-N-DZ): > 10 µM
- IC50 (SW1088): 6.92 µM
- IC50 (SW948): > 10 µM
- IC50 (SiHa): > 10 µM
- IC50 (TCC-SUP): > 10 µM
- IC50 (786-0): 3.27 µM
- IC50 (A-427): 3.6 µM
- IC50 (A498): > 10 µM
- IC50 (AN3-CA): 6.69 µM
- IC50 (BB49-HNC): > 10 µM
- IC50 (BB65-RCC): 2.41 µM
- IC50 (BCPAP): 5.33 µM
- IC50 (BPH-1): 1.9 µM
- IC50 (BT-474): > 10 µM
- IC50 (C32): 0.191 µM
- IC50 (C3A): > 10 µM
- IC50 (CAL-120): > 10 µM
- IC50 (U-118-MG): > 10 µM
- IC50 (U-266): 7.56 µM
- IC50 (UO-31): > 10 µM
- IC50 (CHP-212): 0.0289 µM
